According to the supplement of paper PMC10307832:

How the values were obtained:
Test in all cases: relative viability (nuclei count vs DMSO), 5 days (fraction); higher = more cells survive
[1] = system: NCI-H596
Summary of the method: (§1)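 Relative viability equals treated-well nuclei counts divided by vehicle-well nuclei counts. Counts came from 4× images of lung cancer cell lines grown in 1536-well plates for 5 days after pin-tool dosing on the day after seeding. Dosing used one drug alone or a fixed anchor-drug dose plus five library-drug doses (not always all listed) in √10 steps, and values are medians of duplicate plates.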

[2] = system: LXF-289
Summary of the method: as §1

[3] = system: NCI-H1944
Summary of the method: as §1

[4] = system: ChaGo-K-1
Summary of the method: as §1

[5] = system: NCI-H1975
Summary of the method: as §1

[6] = system: NCI-H1666
Summary of the method: as §1

[7] = system: LCLC-97TM1
Summary of the method: as §1

[8] = system: NCI-H2087
Summary of the method: as §1

[9] = system: NCI-H661
Summary of the method: as §1

[10] = system: HCC-78
Summary of the method: as §1

[11] = system: NCI-H1651
Summary of the method: as §1

With COc1cc2nccc(Oc3ccc(NC(=O)Nc4cc(C)on4)c(Cl)c3)c2cc1OC [Tivozanib] + Cc1cc(Nc2cc(N3CCN(C)CC3)nc(Sc3ccc(NC(=O)C4CC4)cc3)n2)n[nH]1 [Tozasertib] (partner 0.1 µM) the relative viability ([1]; first compound 0.005 µM) was 0.873, the relative viability ([1]; first compound 0.01581 µM) was 0.888 and the relative viability ([1]; first compound 0.05 µM) was 0.939. For the same molecule, the relative viability ([1]; first compound 0.5 µM) was 0.885, the relative viability ([2]; first compound 0.005 µM) was 0.173 and the relative viability ([2]; first compound 0.01581 µM) was 0.201. For the same molecule, the relative viability ([2]; first compound 0.05 µM) was 0.228, the relative viability ([2]; first compound 0.1581 µM) was 0.272 and the relative viability ([2]; first compound 0.5 µM) was 0.23. The relative viability ([3]; first compound 0.005 µM) was 0.251, the relative viability ([3]; first compound 0.01581 µM) was 0.245 and the relative viability ([3]; first compound 0.05 µM) was 0.257. It also gave a relative viability ([3]; first compound 0.1581 µM) of 0.269, a relative viability ([3]; first compound 0.5 µM) of 0.297 and a relative viability ([4]; first compound 0.005 µM) of 0.226. It also gave a relative viability ([4]; first compound 0.01581 µM) of 0.247, a relative viability ([4]; first compound 0.05 µM) of 0.216 and a relative viability ([4]; first compound 0.1581 µM) of 0.256. The relative viability ([4]; first compound 0.5 µM) was 0.186, the relative viability ([5]; first compound 0.005 µM) was 0.676 and the relative viability ([5]; first compound 0.01581 µM) was 0.739. For the same molecule, the relative viability ([5]; first compound 0.05 µM) was 0.789, the relative viability ([5]; first compound 0.1581 µM) was 0.691 and the relative viability ([5]; first compound 0.5 µM) was 0.567. The relative viability ([6]; first compound 0.005 µM) was 0.538, the relative viability ([6]; first compound 0.01581 µM) was 0.605 and the relative viability ([6]; first compound 0.05 µM) was 0.668. The relative viability ([6]; first compound 0.1581 µM) was 0.628, the relative viability ([6]; first compound 0.5 µM) was 0.646 and the relative viability ([7]; first compound 0.005 µM) was 0.236. The relative viability ([7]; first compound 0.01581 µM) was 0.168, the relative viability ([7]; first compound 0.05 µM) was 0.274 and the relative viability ([7]; first compound 0.1581 µM) was 0.357. It also gave a relative viability ([7]; first compound 0.5 µM) of 0.197, a relative viability ([8]; first compound 0.005 µM) of 0.22 and a relative viability ([8]; first compound 0.01581 µM) of 0.316. It also gave a relative viability ([8]; first compound 0.05 µM) of 0.261, a relative viability ([8]; first compound 0.1581 µM) of 0.338 and a relative viability ([8]; first compound 0.5 µM) of 0.303. For the same molecule, the relative viability ([9]; first compound 0.005 µM) was 0.37, the relative viability ([9]; first compound 0.01581 µM) was 0.362 and the relative viability ([9]; first compound 0.05 µM) was 0.359. It also gave a relative viability ([9]; first compound 0.1581 µM) of 0.363, a relative viability ([9]; first compound 0.5 µM) of 0.363 and a relative viability ([10]; first compound 0.005 µM) of 0.324. It also gave a relative viability ([10]; first compound 0.01581 µM) of 0.472, a relative viability ([10]; first compound 0.05 µM) of 0.347 and a relative viability ([10]; first compound 0.1581 µM) of 0.501. The relative viability ([10]; first compound 0.5 µM) was 0.328, the relative viability ([11]; first compound 0.005 µM) was 0.698 and the relative viability ([11]; first compound 0.01581 µM) was 0.768. For the same molecule, the relative viability ([11]; first compound 0.05 µM) was 0.758 and the relative viability ([11]; first compound 0.1581 µM) was 0.764.
